Assay results reported in publication PMC10663516 (Scientific Reports, 2023).
Where two headings read alike, the source gives them in different places.

How the values were obtained:
DLBCL = conditions: cited from earlier work
LY2214/Unc = experiment: DLBCL PDX model; type: in vivo, mouse; conditions: 17 days, QD PO, TL-895 and ibrutinib 25 mg/kg, acalabrutinib 30 mg/kg
Protocol: (§1) All three compounds were formulated in a solution of 20% kleptose (hydroxypropyl β-cyclodextrin) in 50 mM citrate and administered QD PO during the treatment periods given for each model.
(§2) For mean values > 0: %ΔT/ΔC=endtumorvolumetreatment-starttumorvolumetreatment/endtumorvolumecontrol-starttumorvolumecontrol×100
(§3) For mean values ≤ 0 (i.e. regression): %ΔT/ΔC=endtumorvolumetreatment-starttumorvolumetreatment/starttumorvolumecontrol×100
(§4) The research use of patient material in PDX models at Crown Bioscience, XenoSTART and EPO-GmbH was approved by the local Institutional Ethical Review Boards and the patients provided written informed consent. Molecular analysis was performed on samples from each model using the EdgeSeq DLBCL Cell of Origin Assay (HTG Molecular Diagnostics, Tucson, AZ, USA) to confirm ABC-GCB DLBCL subtype.
(§5) Stock mice inoculated with human DLBCL cancer tissues were euthanized by progressive hypoxemia with CO2 and tumors were harvested. Tumor fragments were used at three different contract research organizations for xenotransplantation into different mouse strains for the following models: (1) 6-week-old female nude (NMRI:nu/nu) or CB17-SCID mice (Javier Labs, France): Ly12638, Ly11212, and Ly13005 (Experimental Pharmacology and Oncology Berlin-Buch GmbH [EPO-GmbH], Germany); (2) 6–8-week-old female BALB/c nude or NOD SCID mice (Beijing HFK Bioscience Co., Ltd. Beijing, China): LY0257, LY2214, LY3604, LY2298, LY2264, LY2318, and LY2345 (Crown Bioscience Inc, Taicang, China); and (3) 6–12-week-old female CB-17 SCID mice (CB17/Icr-Prkdc^scid/IcrIcoCrl Charles River Laboratories, Wilmington, MA, USA): ST118B, ST949B, ST359, ST949, ST2761B, ST2963, ST1361, ST2078, ST1735B, ST2902, and ST3497 (XenoSTART, San Antonio, TX, USA).
(§6) When the average tumor volume was within a pre-determined range (100–300 mm^3), mice were assigned to treatment groups to balance the mean starting tumor volumes (n = 5 for all models except LY13005, which was n = 3). […] Tumor volumes were recorded 2–3 times per week. Mean %∆T/∆C was calculated at the end of treatment as described above for MCL models.
(§7) Tumor volume was used as the measure of efficacy for statistical analyses of in vivo xenograft studies. Tumor volume data from individual studies were log-transformed and statistically analyzed using repeated measures analysis of covariance (RM-ANCOVA) to determine significant treatment effects, followed by post hoc Tukey’s test for multiple pairwise comparisons (all α = 0.05) using R software. Day 0 data were used only as covariates in the analyses because tumor measurements on that day were recorded before the first treatments were administered.

ST2078/GCB = experiment: DLBCL PDX model; type: in vivo, mouse; conditions: 20 days, QD PO, TL-895 and ibrutinib 25 mg/kg, acalabrutinib 30 mg/kg
Protocol: as §1, §2, §3, §4, §5, §6, §7

LY2345/ABC = experiment: DLBCL PDX model; type: in vivo, mouse; conditions: 17 days, QD PO, TL-895 and ibrutinib 25 mg/kg, acalabrutinib 30 mg/kg
Protocol: as §1, §2, §3, §4, §5, §6, §7

ST2902/GCB = experiment: DLBCL PDX model; type: in vivo, mouse; conditions: 22 days, QD PO, TL-895 and ibrutinib 25 mg/kg, acalabrutinib 30 mg/kg
Protocol: as §1, §2, §3, §4, §5, §6, §7

LY13005/ABC = experiment: DLBCL PDX model; type: in vivo, mouse; conditions: 14 days, QD PO, TL-895 and ibrutinib 25 mg/kg, acalabrutinib 30 mg/kg
Protocol: as §1, §2, §3, §4, §5, §6, §7

ST2963/GCB = experiment: DLBCL PDX model; type: in vivo, mouse; conditions: 13 days, QD PO, TL-895 and ibrutinib 25 mg/kg, acalabrutinib 30 mg/kg
Protocol: as §1, §2, §3, §4, §5, §6, §7

LY2318/ABC = experiment: DLBCL PDX model; type: in vivo, mouse; conditions: 14 days, QD PO, TL-895 and ibrutinib 25 mg/kg, acalabrutinib 30 mg/kg
Protocol: as §1, §2, §3, §4, §5, §6, §7

ST2761B/GCB = experiment: DLBCL PDX model; type: in vivo, mouse; conditions: 24 days, QD PO, TL-895 and ibrutinib 25 mg/kg, acalabrutinib 30 mg/kg
Protocol: as §1, §2, §3, §4, §5, §6, §7

LY2298/ABC = experiment: DLBCL PDX model; type: in vivo, mouse; conditions: LY2298/ABC MyD88, 16 days, QD PO; TL-895 and ibrutinib 25 mg/kg, acalabrutinib 30 mg/kg
Protocol: as §1, §2, §3, §4, §5, §6, §7

ST118B/ABC = experiment: DLBCL PDX model; type: in vivo, mouse; conditions: ST118B/ABC MyD88, 19 days, QD PO; TL-895 and ibrutinib 25 mg/kg, acalabrutinib 30 mg/kg
Protocol: as §1, §2, §3, §4, §5, §6, §7

LY3604/ABC = experiment: DLBCL PDX model; type: in vivo, mouse; conditions: 17 days, QD PO, TL-895 and ibrutinib 25 mg/kg, acalabrutinib 30 mg/kg
Protocol: as §1, §2, §3, §4, §5, §6, §7

ST359/GCB = experiment: DLBCL PDX model; type: in vivo, mouse; conditions: 11 days, QD PO, TL-895 and ibrutinib 25 mg/kg, acalabrutinib 30 mg/kg
Protocol: as §1, §2, §3, §4, §5, §6, §7

ST23497/GCB = experiment: DLBCL PDX model; type: in vivo, mouse; conditions: 17 days, QD PO, TL-895 and ibrutinib 25 mg/kg, acalabrutinib 30 mg/kg
Protocol: as §1, §2, §3, §4, §5, §6, §7

LY0257/ABC = experiment: DLBCL PDX model; type: in vivo, mouse; conditions: LY0257/ABC MyD88, 17 days, QD PO; TL-895 and ibrutinib 25 mg/kg, acalabrutinib 30 mg/kg
Protocol: as §1, §2, §3, §4, §5, §6, §7

ST1361/GCB = experiment: DLBCL PDX model; type: in vivo, mouse; conditions: 11 days, QD PO, TL-895 and ibrutinib 25 mg/kg, acalabrutinib 30 mg/kg
Protocol: as §1, §2, §3, §4, §5, §6, §7

ST949/GCB = experiment: DLBCL PDX model; type: in vivo, mouse; conditions: 14 days, QD PO, TL-895 and ibrutinib 25 mg/kg, acalabrutinib 30 mg/kg
Protocol: as §1, §2, §3, §4, §5, §6, §7

LY12638/GCB = experiment: DLBCL PDX model; type: in vivo, mouse; conditions: 25 days, QD PO, TL-895 and ibrutinib 25 mg/kg, acalabrutinib 30 mg/kg
Protocol: as §1, §2, §3, §4, §5, §6, §7

LY11212/GCB = experiment: DLBCL PDX model; type: in vivo, mouse; conditions: 13 days, QD PO, TL-895 and ibrutinib 25 mg/kg, acalabrutinib 30 mg/kg
Protocol: as §1, §2, §3, §4, §5, §6, §7

ST1735B/GCB = experiment: DLBCL PDX model; type: in vivo, mouse; conditions: 29 days, QD PO, TL-895 and ibrutinib 25 mg/kg, acalabrutinib 30 mg/kg
Protocol: as §1, §2, §3, §4, §5, §6, §7

Daudi cells = experiment: Rituximab-induced ADCC, NK cell-driven lysis (Calcein-AM release); type: cell-based, human; conditions: 3 µg/mL rituximab, primary NK cells, 4 h; TL-895 0.1–10 µM, ibrutinib and acalabrutinib 0.3–30 µM
Source text: ADCC analysis was based on quantitation of Calcein-AM release by […] detection on a FLUOstar® Omega (BMG LABTECH).

Row | SMILES | %ΔT/ΔC (LY2214/Unc) | %ΔT/ΔC (ST2078/GCB) | %ΔT/ΔC (LY2345/ABC) | %ΔT/ΔC (ST2902/GCB) | %ΔT/ΔC (LY13005/ABC) | %ΔT/ΔC (ST2963/GCB) | %ΔT/ΔC (LY2318/ABC) | %ΔT/ΔC (ST2761B/GCB) | %ΔT/ΔC (LY2298/ABC) | %ΔT/ΔC (ST118B/ABC) | %ΔT/ΔC (LY3604/ABC) | %ΔT/ΔC (ST359/GCB) | %ΔT/ΔC (ST23497/GCB) | %ΔT/ΔC (LY0257/ABC) | %ΔT/ΔC (ST1361/GCB) | %ΔT/ΔC (ST949/GCB) | %ΔT/ΔC (LY12638/GCB) | %ΔT/ΔC (LY11212/GCB) | %ΔT/ΔC (ST1735B/GCB) | Inhibition of the ADCC mechanism of rituximab (Daudi cells) | other results
1 | CC#CC(=O)N1CCC[C@H]1c1nc(-c2ccc(C(=O)Nc3ccccn3)cc2)c2c(N)nccn12 [Acalabrutinib] | 63% | 115^I % | 108% | 85% | 64^V % | 116% | 102% | 94% | 27^V,I % | 104% | 36^V % | 54% | 100% | 54^M % | 74^V % | 72% | 262% | 126% | 80% | neither TL-895 (0.1–10 µM) nor acalabrutinib (0.3–30 µM) inhibited the ADCC mechanism of rituximab at the lower, more clinically relevant, concentrations | Combined overall response rate (ORR) (DLBCL; patients with either ABC- or GCB-DLBCL): 24%
2 | C=CC(=O)N1CCC[C@@H](n2nc(-c3ccc(Oc4ccccc4)cc3)c3c(N)ncnc32)C1 [Ibrutinib] | 77% | 75^A % | 118% | 92% | 71^M % | 81% | 86% | 71% | 69^A % | 90% | 38^V % | 62% | 95% | 88^M % | 65^V % | 86% | 121% | 171% | 75% | ADCC was inhibited by ibrutinib (0.3–30 µM) in a concentration-dependent manner | ORR (DLBCL; combined with R-ICE, patients with GCB-DLBCL): 90%; Reported response rate (DLBCL; patients with ABC-DLBCL): 37%; Reported response rate (DLBCL; patients with GCB-DLBLC): 5%; ORR (DLBCL; patients with wild type CD79B ABC-DLBCL): 31%
3 | C=CC(=O)N1CCC(F)(CNc2ncnc(N)c2-c2ccc(Oc3ccccc3)cc2)CC1 [TL-895] | 93% | 114% | 120% | 104% | 43^V,I % | 106% | 104% | 90% | 38% | 68% | 32^V % | 71% | 101% | 45^V,I,A % | 60^V % | 83% | 84% | 115% | 101% | neither TL-895 (0.1–10 µM) nor acalabrutinib (0.3–30 µM) inhibited the ADCC mechanism of rituximab at the lower, more clinically relevant, concentrations | Complete responses in patients with DLBCL (DLBCL; preliminary evidence): 1
